Experimental data published in patent US10278965B2, “Method of detecting cancer stem cell, method of screening cancer stem cell, and method of inhibiting cancer stem cell” (CANON KABUSHIKI KAISHA, priority 2012, dated 2019).

Key:
[1] = tested on: Prostatic cancer cells, PC-3; assay: Cancer cell inhibitory (growth suppressive) action against prostatic cancer cells, CellTiter-Glo viable cell count; type: cell-based; settings: PC-3, 10 μg/mL, 24 hours
Description: Prostatic cancer cells, PC-3, were pre-cultured in RPMI1640 medium containing 10% FBS at 37° C. in a 5% CO2 ambient. Thereafter, 4,000 cells were seeded per well of a 96-well plate and further cultured for 24 hours. Subsequently, Compound (1) was added to the medium so as to obtain a final concentration of 10 μg/mL and cultured at 37° C. for 24 hours in a 5% CO2 ambient. The cultured cells were analyzed for viable cell count according to Cell Titer-Glo Luminescent Cell Viability Assay (manufactured by Promega KK.).
Viable cell count was analyzed in the same manner as in Experimental Example 24 except that Compound (1) of Experimental Example 24 was changed to each compound shown in Table 2.
Viable cell count was analyzed in the same manner as in Experimental Example 24 except that Compound (1) of Experimental Example 24 was changed to each of Comparative compounds 1 to 4, to obtain growth rates.
Note that the growth rate used in Examples refers to the rate (expressed by percentage) of viable cell count after culture relative to the number of cells at the initiation of cell culture. Evaluation criteria are the same as in the above experiments.

[2] = Measurement of fluorescent property of compound; type: physicochemical; settings: 5 μM DMSO solution
Description: The excitation wavelength and fluorescence wavelength of the compound were measured by a FL4500 spectrofluorometric measuring machine manufactured by Hitachi High-Technologies Corporation.

[3] = tested on: K562-KOr human chronic myelocytic leukemia cells, ALDH (+) fraction, transplanted to zebra young fish; assay: Inhibitory action in cancer stem cells transplanted animal, ALDH (+) fraction; type: in vivo; settings: for Growth suppression rate (ALDH(+) versus ALDH(−)): zebra young fish transplanted with K562-KOr fractions; for ALDH(+) inhibition rate 100×(1−F1/F0): zebra young fish, 0.5 μm in breeding water added 24 hours after transplantation, fluorescent intensity
Description: (§1) From cell strain K562-KOr, which is a strain of human chronic myelocytic leukemia cells having fluorescent protein Kusabira-Orange constantly expressed, a fraction (ALDH (+)) containing 80% or more of cancer stem cells was extracted by use of a cancer stem cell marker, ALDEFLUOR reagent (manufactured by VERITAS Corporation) and FACSAria flow cytometry (manufactured by Nippon Becton, Dickinson and Company). The ALDH (+) fraction and a ALDH (−) fraction of general cancer cells were transplanted separately to zebra young fish (MieKomachi lineage, 2 days after fertilization) and the fish were raised in a 32° C. environment. Furthermore, 24 hours after transplantation, Compound (16) was added to breeding water so as to obtain a final concentration of […] and fish were raised for two days in a 32° C. environment.
(§2) Cells transplanted to the zebra young fish were observed under MZ16F fluorescent stereoscopic microscope (manufactured by Leica Microsystems) and a fluorescent image of the cells after 24 hours was photographed and then fluorescent intensity was quantified.
As a reference, the fluorescent intensity of cells, which were cultured in the same operation method as above in a medium containing a 0.1% DMSO solution in place of Compound (16), was used.
The numerical value of fluorescent intensity was obtained from a fluorescent image taken in the same manner as in Experimental Example 74 except that Compound (16) of Experimental Example 74 was changed to Imatinib.
. The inhibition rate herein was obtained according to the expression: 100×(1−F1/F0), where the fluorescent intensity of cells when a test substance was added is represented by F1, and the fluorescent intensity of cells when a reference substance (DMSO) was added is represented by F0.

[4] = tested on: K562-KOr human chronic myelocytic leukemia cells, ALDH (−) fraction, transplanted to zebra young fish; assay: Inhibitory action in cancer cells transplanted animal, ALDH (−) fraction; type: in vivo; settings: 0.5 μm in breeding water added 24 hours after transplantation, fluorescent intensity
Description: as §1, §2
As a reference, the fluorescent intensity of cells, which were cultured in the same operation method as above in a medium containing a 0.1% DMSO solution in place of Compound (16), was used. […]

K562 ALDH (+) cells = assay: Cancer stem-cell selective staining, ALDH (+) cells; type: cell-based, Human; settings: cells of Experimental Examples 39, 42 and 45 (1 μg/ml, cultured for 24 hours), fluorescent microscope
Description: (§3) The cells cultured for 24 hours in each of Experimental Examples 39, 42 and 45 were subjected to nuclear staining with Hoechest33342 (manufactured by Dojindo Laboratories) and a fluorescent image observed under AXIOVERT200M inverted fluorescent microscope (manufactured by Carl Zeiss) was photographed.

[5] = tested on: Human pancreas cancer cells, KLM-1; assay: Cancer cell inhibitory (growth suppressive) action against pancreatic cancer cells, CellTiter-Glo viable cell count; settings: KLM-1, 10 μg/mL, 24 hours
Description: Human pancreas cancer cells, KLM-1, were pre-cultured in RPMI1640 medium containing 10% FBS at 37° C. in a 5% CO2 ambient. Thereafter, 4,000 cells were seeded per well of a 96-well plate and further cultured for 24 hours. […] The cultured cells were analyzed for viable cell count according to CellTiter-Glo Luminescent Cell Viability Assay (manufactured by Promega KK.).
Evaluation of cancer cell inhibition against the pancreatic cancer cells (KLM-1) (growth suppression) was made based on the following criteria. Note that the growth rate used in Examples refers to the rate (expressed by percentage) of viable cell count after culture relative to the number of cells at the initiation of cell culture.

K562 ALDH (−) cells = assay: Cancer stem-cell selective staining, ALDH (−) cells; type: cell-based, Human; settings: cells of Experimental Examples 39, 42 and 45 (1 μg/ml, cultured for 24 hours), fluorescent microscope
Description: as §3

[6] = tested on: Human chronic myelocytic leukemia cells, K562, ALDH (+) fraction (cancer stem cells); assay: Cancer stem-cell selective inhibitory action against chronic myelocytic leukemia cells, ALDH (+) fraction; type: cell-based; settings: 24 hours
Description: (§4) Human chronic myelocytic leukemia cells, K562, were pre-cultured in RPMI1640 medium containing 10% FBS at 37° C. in a 5% CO2 ambient. Then, a fraction containing 80% or more of cancer stem cells was extracted by use of a cancer stem cell marker, ALDEFLUOR reagent (manufactured by VERITAS Corporation) and FACSAria flow cytometry (manufactured by Nippon Becton, Dickinson and Company). […] The cultured cells were analyzed for viable cell count according to CellTiter-Glo Luminescent Cell Viability Assay (manufactured by Promega KK.). […] Note that hereinafter, an ALDEFLUOR reagent positive fraction (deemed as cancer stem cells) is represented by ALDH (+), whereas an ALDEFLUOR reagent negative fraction (not deemed as cancer stem cells) is represented by ALDH (−), in some cases.
(§5) Further, the growth suppressive effect of cancer stem cells was evaluated based on the following criteria. Note that the growth rate in Examples is a value obtained by dividing viable cell count after culture by the number of cells at the initiation time of culture.

[7] = tested on: Human chronic myelocytic leukemia cells, K562, ALDH (−) fraction (general cancer cells); assay: Cancer stem-cell selective inhibitory action against chronic myelocytic leukemia cells, ALDH (−) fraction; type: cell-based; settings: K562
Description: as §4, §5

[8] = tested on: KLM1-KOr cells, ALDH (+) fraction, transplanted to zebra young fish; assay: Cancer metastasis suppressive effect in cancer cell metastatic foci (region within 300 to 450 μm from a transplanted tumor); type: in vivo; settings: 72 hours later, region within 300 to 450 μm from transplanted tumor
Description: From cell strain […], in which KLM1 cells have fluorescent protein Kusabira-Orange constantly expressed, a fraction (ALDH (+)) containing 80% or more of cancer stem cells was extracted with ALDEFLUOR reagent (manufactured by VERITAS Corporation) and FACSAria flow cytometry (manufactured by Nippon Becton, Dickinson and Company). The extracted KLM1-KOr cells were transplanted to zebra young fish (MieKomachi lineage, 2 days after fertilization) and the fish were raised in a 32° C. environment. Furthermore, 24 hours after transplantation, Compound (26) (745 μmol/KgBW) was administered to yolk sac.
as §2, with “72 hours later, cells” for “Cells”, “region within 300 to 450 μm from a transplanted tumor” for “cells after 24 hours”
As a reference, the fluorescent intensity of cells, which were cultured in the same operation method as above in a medium containing a 0.1% DMSO solution in place of Compound (26), was used.
Fluorescent images were photographed in the same manner as in Experimental Example 26 except that Imatinib and Dasatinib were respectively used in place of the compound (26) in Experimental Example 75.
The inhibition rate herein was obtained according to the expression: 100×(1−F1/F0), where the fluorescent intensity of cells when a test substance was added is represented by F1, and the fluorescent intensity of cells when a reference substance (DMSO) was added is represented by F0.

Row | Excitation wavelength λex [2] [nm] | Fluorescence wavelength λem [2] [nm] | Compound | Cancer cell growth rate (%) [1] [%] | Evaluation (cancer cell growth rate) [1] | Growth suppression rate (ALDH(+) versus ALDH(−)) [3] | ALDH(+) inhibition rate 100×(1−F1/F0) [3] | ALDH(−) inhibition rate 100×(1−F1/F0) [4] | ratio of ALDH (+) cells stained (K562 ALDH (+) cells) [%] | Cancer cell growth rate (%) [5] [%] | Evaluation (cancer cell growth rate) [5] | ratio of ALDH (−) cells stained (K562 ALDH (−) cells) [%] | ALDH(+) Superiority evaluation ([6]; K562, 0.05 μg/ml) | ALDH(+)/ALDH(−) ([6]; K562, 0.05 μg/ml) | ALDH(+) Superiority evaluation ([6]; K562, 0.5 μg/ml) | ALDH(+)/ALDH(−) ([6]; K562, 0.5 μg/ml) | ALDH(+) Superiority evaluation ([6]; K562, 1 μg/ml) | ALDH(+)/ALDH(−) ([6]; K562, 1 μg/ml) | further results
1 | 474 | 509 | CCCCCN1/C(=C\C=C\c2oc3ccccc3[n+]2CCCCC)Oc2ccccc21 [Compound 16] | 8.4 | A (Cancer cell growth rate is less than 20%) | ALDH(+) is high | 95.0 | 82.0 | 99.5 | 2.0 | A (Cancer cell growth rate is less than 20%) | 18.6 | B (The value of the growth rate of ALDH (+)/the growth rate of ALDH (−) is 0.8 or more and less than 0.95) | 0.87 | A (The value of the growth rate of ALDH (+)/the growth rate of ALDH (−) is less than 0.8) | 0.70 | A (The value of the growth rate of ALDH (+)/the growth rate of ALDH (−) is less than 0.8) | 0.47 | 
2 | 496 | 569 | CCN1/C(=C\C=C\C2=[N+](CC)c3ccccc3C23CCCCC3)C2(CCCCC2)c2ccccc21 [Compound 24] | 10.0 | A (Cancer cell growth rate is less than 20%) |  |  |  | 81.2 | 6.5 | A (Cancer cell growth rate is less than 20%) | 28.6 | B (The value of the growth rate of ALDH (+)/the growth rate of ALDH (−) is 0.8 or more and less than 0.95) | 0.81 | A (The value of the growth rate of ALDH (+)/the growth rate of ALDH (−) is less than 0.8) | 0.61 | A (The value of the growth rate of ALDH (+)/the growth rate of ALDH (−) is less than 0.8) | 0.48 | 
3 |  |  | Cc1ccc(NC(=O)c2ccc(CN3CCN(C)CC3)cc2)cc1Nc1nccc(-c2cccnc2)n1 [Imatinib, reference compound] |  |  | ALDH(−) is high | 60.0 | 80.0 |  |  |  |  |  |  |  |  |  |  | inhibitory effect against general cancer cells [7]: an inhibitory effect against general cancer cells was observed; Inhibition rate 100×(1−F1/F0), metastatic foci ([8]; administered to yolk sac 24 hours after transplantation (Compound (26) 745 μmol/KgBW)): 60; Evaluation (inhibition rate, metastatic foci) [8]: B (Inhibition rate is 50 or more and less than 70); ALDH(+) Superiority evaluation ([6]; K562, 0.12 μg/ml): C (The value of the growth rate of ALDH (+)/the growth rate of ALDH (−) is 0.95 or more); ALDH(+)/ALDH(−) ([6]; K562, 0.12 μg/ml): 1.47; ALDH(+) Superiority evaluation ([6]; K562, 0.24 μg/ml): C (The value of the growth rate of ALDH (+)/the growth rate of ALDH (−) is 0.95 or more); ALDH(+)/ALDH(−) ([6]; K562, 0.24 μg/ml): 1.48; ALDH(+) Superiority evaluation ([6]; K562, 0.35 μg/ml): C (The value of the growth rate of ALDH (+)/the growth rate of ALDH (−) is 0.95 or more); ALDH(+)/ALDH(−) ([6]; K562, 0.35 μg/ml): 1.51; ALDH(+) Superiority evaluation ([6]; K562, 0.47 μg/ml): C (The value of the growth rate of ALDH (+)/the growth rate of ALDH (−) is 0.95 or more); ALDH(+)/ALDH(−) ([6]; K562, 0.47 μg/ml): 1.63; ALDH(+) Superiority evaluation ([6]; K562, 0.59 μg/ml): C (The value of the growth rate of ALDH (+)/the growth rate of ALDH (−) is 0.95 or more); ALDH(+)/ALDH(−) ([6]; K562, 0.59 μg/ml): 2.80
